According to patent US3966735A, “1-3-(4-Fluorobenzoyl)propyl-4-substituted phenoxy ethyl piperazine” (Kali-Chemie Aktiengesellschaft, priority 1973, dated 1976):

What was measured:
[1] = Acute toxicity, single oral administration (Test 1); conditions: mouse, in vivo, fasting white mice, NMRI strain, Litchfield and Wilcoxon
Experimental: 1. Acute toxicity: The acute toxicity is determined by a single oral administration to fasting white mice of the NMRI strain. The […] lethal dose (LD50) is computed in accordance with the method described by J.T. Litchfield and F. Wilcoxon in Journal of Pharmacology and Experimental Therapeutics, vol. 96, page 99 (1949).

[2] = system: mouse; test: Test of prolongation of narcosis induced by hexobarbital (Test 2); assay type: in vivo; conditions: peroral, 30 minutes before 65 mg/kg hexobarbital i.v., dose required to double the sleeping time, read-out: Narcotic prolongation effect (Test 2)
Experimental: 2. Test of prolongation of narcosis induced by hexobarbital: In accordance with this test, the test substance is administered perorally to a mouse. After an interval of 30 minutes, a dose of 65 milligrams of hexobarbital per kilogram of body weight is administered intravenously. The result is reported as the dose of the test compound that was required to double the period of sleeping time that was induced by the hexobarbital.

[3] = system: female mice of the NMRI strain; test: Test of sedative effectiveness (Test 3); assay type: in vivo, mouse (female mice of the NMRI strain); conditions: Mus musculus, ip, 0.5 h; intraperitoneal, on awakening from 100 mg/kg hexobarbital i.p.; dose required to induce sleep for 30 minutes; read-out: Effective sedative dose ED50 (Test 3)
Experimental: 3. Test of sedative effectiveness: In this test is measured the period of narcosis that is induced by the test substance following a period of narcosis induced by hexobarbital. A dose of 100 milligrams of hexobarbital per kilogram of body weight is administered intraperitoneally to female mice of the NMRI strain. As soon as the mouse revives or awakens from the narcosis induced by the dose of hexobarbital, a measured dose of the test substance is administered intraperitoneally. The period between the administration of the test substance and the second revival of the mouse is then noted. From the length of this second period is calculated the dose of the test substance that was required to induce sleep for a period of 30 minutes and this dose is referred to as the effective sedative dose (ED50).

[4] = system: female mice of the NMRI strain; test: Squirrel-cage test for determining effect of drugs on motility (Test 4); assay type: in vivo, mouse (female mice of the NMRI strain); conditions: peroral, 20 mice, revolutions over 5 hours, compared with peroral chlordiazepoxide
Experimental: 4. Squirrel-cage test for determining effect of drugs on motility: The test substance is administered perorally to female mice of the NMRI strain that had previously not been exercised in a squirrel cage. Twenty mice are placed into the revolving cylinder of the squirrel cage and they are allowed to run freely therein. The number of revolutions through which the cylinder in the squirrel cage spins every 15 minutes is noted during the course of an extended period of 5 hours, when the test is discontinued. The average of the number of revolutions per minute is calculated and represented on a graph. These values are then compared with […] and the results are reported in milligrams per kilogram of body weight.

Compound: Cl.Cl.N#Cc1ccc(OCCN2CCN(CCCC(=O)c3ccc(F)cc3)CC2)cc1 [Substance 1, 1-[3-(4-Fluorobenzoyl)propyl]-4-[2-(4-cyanophenoxy)ethyl]-piperazine dihydrochloride]
- LD50 [1]: 215 mg/kg
- ED (2-fold sleeping time) [2]: 10 mg/kg
- ED50 [3]: 21.5 mg/kg
- Squirrel cage motility test versus 21.5 mg/kg chlordiazepoxide (Test 4) [4]: 0.7 mg/kg

Compound: Cl.Cl.O=C(CCCN1CCN(CCSc2ccc(Cl)cc2)CC1)c1ccc(F)cc1 [Substance 2, 1-[3-(4-Fluorobenzoyl)propyl]-4-[2-(4-chlorophenylthio)-ethyl]piperazine dihydrochloride]
- LD50 [1]: > 1470 mg/kg
- ED (2-fold sleeping time) [2]: 20 mg/kg
- ED50 [3]: 30 mg/kg
- Squirrel cage motility test versus 21.5 mg/kg chlordiazepoxide (Test 4) [4]: > 10 mg/kg

Compound: CCC(=O)c1ccc(OCCN2CCN(CCCC(=O)c3ccc(F)cc3)CC2)c(Cl)c1.Cl.Cl [Substance 3, 1-[3-(4-Fluorobenzoyl)propyl]-4-[2-(4-propionyl-2-chlorophenoxy)ethyl]piperazine dihydrochloride]
- LD50 [1]: 860 mg/kg
- ED (2-fold sleeping time) [2]: 20 mg/kg
- ED50 [3]: 14 mg/kg
- Squirrel cage motility test versus 21.5 mg/kg chlordiazepoxide (Test 4) [4]: 1.5 mg/kg

Compound: Cc1ccc(OCCN2CCN(CCCC(=O)c3ccc(F)cc3)CC2)c([N+](=O)[O-])c1.Cl.Cl [Substance 4, 1-[3-(4-Fluorobenzoyl)propyl]-4-[2-(4-methyl-2-nitrophenoxy)ethyl]piperazine dihydrochloride]
- LD50 [1]: 1720 mg/kg
- ED (2-fold sleeping time) [2]: 20 mg/kg
- ED50 [3]: 46 mg/kg

Compound: COc1cc(C)ccc1OCCN1CCN(CCCC(=O)c2ccc(F)cc2)CC1.Cl.Cl [Substance 5, 1-[3-(4-Fluorobenzoyl)propyl]-4-[2-(4-methyl-2-methoxyphenoxy)ethyl]piperazine dihydrochloride]
- LD50 [1]: 458 mg/kg
- ED (2-fold sleeping time) [2]: 46 mg/kg
- ED50 [3]: 7 mg/kg
- Squirrel cage motility test versus 21.5 mg/kg chlordiazepoxide (Test 4) [4]: 3.2 mg/kg

Compound: Cc1ccc([N+](=O)[O-])cc1OCCN1CCN(CCCC(=O)c2ccc(F)cc2)CC1.Cl.Cl [Substance 6, 1-[3-(4-Fluorobenzoyl)propyl]-4-[2-(5-nitro-2-methylphenoxy)ethyl]piperazine dihydrochloride]
- LD50 [1]: > 1470 mg/kg
- ED (2-fold sleeping time) [2]: 32 mg/kg
- ED50 [3]: 23 mg/kg

Compound: CS(=O)(=O)c1ccc(OCCN2CCN(CCCC(=O)c3ccc(F)cc3)CC2)cc1.Cl.Cl [Substance 7, 1-[3-(4-Fluorobenzoyl)propyl]-4-[2-(4-methylsulfonylphenoxy)ethyl]piperazine dihydrochloride]
- LD50 [1]: 825 mg/kg
- ED (2-fold sleeping time) [2]: 46 mg/kg
- ED50 [3]: 30 mg/kg
- Squirrel cage motility test versus 21.5 mg/kg chlordiazepoxide (Test 4) [4]: 6.8 mg/kg

Compound: Cl.Cl.O=C(CCCN1CCN(CCSc2ccc([N+](=O)[O-])cc2)CC1)c1ccc(F)cc1 [Substance 8, 1-[3-(4-Fluorobenzoyl)propyl]-4-[2-(4-nitrophenylthio)-ethyl]piperazine dihydrochloride]
- LD50 [1]: 499 mg/kg
- ED (2-fold sleeping time) [2]: 6 mg/kg
- ED50 [3]: 30 mg/kg
- Squirrel cage motility test versus 21.5 mg/kg chlordiazepoxide (Test 4) [4]: 6.8 mg/kg
